Each structure is given as a SMILES string. A value given as a limit tells only on which side of the number the result lay.

This note sets out measurements from a melting point compilation (Tetko et al.; mined from patent text by program, amines drawn as free bases though some values may be those of a salt).

Regarding `O=C(CCCCCBr)N1Cc2ccccc2C1`, the melting point (in general, the temperature, or range, at which the solid turns liquid) was 88 °C. For `CCOC(=O)c1ccc2oc(CN3CCN(c4ccc(Cl)nn4)CC3)nc2c1`, the melting point amounted to 140 °C. In turn, `CN(C)C(=O)Nc1scc(C(C)(C)C)c1C#N` showed a melting point of 140 °C. Next, `Cc1nc(Br)n(C)c1-c1nc(C2CC2)no1`: 81 °C; `Cc1nn(-c2ccc(Cl)nn2)c(C)c1Br`: 143 to 145 °C.

The molecule `c1ccc(Cn2nc(-c3ccco3)c3cncnc32)cc1` yielded a melting point of 106 °C. In the case of `CC1Cc2cc(S(N)(=O)=O)cc(C(=O)O)c2O1` (stereo not given) it was 245 to 246 °C. For the molecule `O=C(O)C(CC1CCCC1)c1ccc(S(=O)(=O)C(F)(F)F)cc1` (stereo not given), the melting point lay in the range of 143 to 145 °C. In the case of `O=C(NN=Cc1ccncc1)OC(c1ccccc1)c1ccccc1` it was 159 to 160 °C; in that of `NC(=O)C(Nc1ccc(Cl)cc1)c1c(Cl)ccc(N)c1Cl` (stereo not given), 232 °C. In the case of `Cc1nc(N)nc(CCCCCCCCCCO)c1O` it was 103 to 104 °C.

Consider `COc1ccc(Cc2nc(S)[nH]c2Cc2ccc(OC)cc2)cc1`, for which the melting point is 270 °C. Turning to `Cc1nc(Cn2nc(-c3c(-c4ccccc4)nn4ccccc34)ccc2=O)cs1`, the melting point lay in the range of 196 to 198 °C. The molecule `CN(Cc1ccc(CCn2cnc3cc(-c4ccc(Cl)cc4)sc3c2=O)cc1)C(=O)C1CC1` showed a melting point of 178 °C.

The molecule `COc1ccccc1NC(=O)Nc1nc2c(s1)CN(C)CC2` yielded a melting point of 201 to 203 °C. Take `O=C1c2ccccc2C(=O)N1CCc1cc(Br)cs1`: the melting point was 115 to 117 °C. As to `CC(C)CC(C#N)NC(=O)C1CCCCC1NC(=O)OCc1ccccc1` (stereo not given), the melting point fell in the range of 104 to 106 °C. With `CC1=C(C(=O)c2ccc3c(c2)CCN(C(N)=O)C3)C(C)(C)CCC1`, the melting point fell in the range of 86.4 to 87.6 °C. `CCOC(=O)c1ccc(N)cc1F` gave a melting point of 110 to 112 °C. In turn, `CCCc1c(OCc2ccc(C(=O)O)cc2OCC)ccc(C(C)=O)c1O` showed a melting point of 152 to 153 °C. Next, `CCc1ccc(SCc2c(C(C)C)nc(C(C)C)c(CO)c2-c2ccc(F)cc2)cc1`: 102 to 103 °C.

On to `N#Cc1cc2c(nc1N1CCCCCC1)CCCC2=O`, for which the melting point lay in the range of 76 to 78 °C.

`COc1ccc(C(=O)OCCOC(=O)NC2(C(=O)O)CC2)cc1OC` had a melting point of 172 to 174 °C. In the case of `O=C(O)/C=C/c1ccnc(-c2nc(=O)c3ccccc3s2)c1` it was 284 to 285 °C. Regarding `CC1CNc2ccc(NC3=NCCN3)c(Br)c2N1` (stereo not given), the melting point was in the range of 250 to 251 °C. Next, `NC(=O)c1cc(OCCNCC(O)COc2ccc(-c3nc(C(F)(F)F)c[nH]3)cc2)ccc1O` (stereo not given): 155 to 158 °C.

For the molecule `COc1ccc(C2=NNC(=O)[C@H]3CC=CC[C@@H]23)cc1OC1CCCC1` (relative stereo), the melting point is 166 to 168 °C.

On to `CC(C)n1nc(-c2sc(NC(=O)c3cccc(C(F)(F)F)c3)nc2-c2ccccc2)ccc1=O`, for which the melting point lay within 237 to 238 °C. As for `O=C(Nc1ccc(F)cc1)NC1CC1`, the melting point is 205 °C.

On to `c1ccc2c(c1)CCONC2`, for which the melting point lay in the range of 190 to 192 °C. `CCCCOC(=O)C(CC(C)C)NC(=O)c1cc([N+](=O)[O-])cc([N+](=O)[O-])c1` (stereo not given) had a melting point of 95 to 98 °C. Take `Cc1cc(-c2ccccc2)c(C)cc1-c1ccccc1`: the melting point was in the range of 301 to 304 °C. Consider `N#Cc1ccc(C(F)(F)F)cn1`, for which the melting point fell in the range of 36 to 38 °C. `CCCCCCCCCCCCCCCCOCC(O)CN1CCC(C#N)(c2ccccc2)CC1` (stereo not given) yielded a melting point of 69 to 70 °C.

For `COC(=O)c1cccc(C2CCCS2)c1N` (stereo not given), the melting point is 75 to 79 °C. Consider `O=C1N(CCCO)c2ccccc2C12COc1cc3c(cc12)OCCO3` (stereo not given), for which the melting point was in the range of 157 to 158 °C.

In turn, `O=C(Nc1ccccc1)Nc1ccnc(Br)c1` had a melting point of 188 to 189 °C. For `COC(=O)C1CC(=O)C(NC(C)=O)=C(O)C1` (stereo not given), the melting point lay in the range of 131 to 132 °C.

On to `COC(=O)CC(NSc1ccccc1[N+](=O)[O-])C(=O)O` (stereo not given), for which the melting point was 108 to 109 °C. With `O=C(NCCSCc1cccc(Cl)c1)c1c([N+](=O)[O-])cccc1[N+](=O)[O-]`, the melting point is 139 to 140 °C. In turn, `Cc1ccc(C(=O)O)c(NC(=O)C(F)(F)F)c1` yielded a melting point of 178 to 180 °C. As to `NC1=NS(=O)N=C1NCCCCN(Cc1ccc(Cl)cc1)c1ccccn1` (stereo not given), the melting point was 175 to 177 °C. The molecule `O=c1[nH]c2cc(Cl)c([N+](=O)[O-])c(Cl)c2[nH]c1=O` yielded a melting point of 320 to 325 °C. In the case of `O=C(O)COc1cc(Cl)ccc1C(=O)NCc1c(F)cccc1F`, the melting point lay within 188 to 190 °C. Next, `CC(c1ccc(-c2ccccc2)c(F)c1)c1cc(N(C)C(=S)NC(=O)c2ccccc2)on1` (stereo not given): 115 to 116 °C; `CN(C)CCn1c(=O)c2cccc(N)c2c2cnc3cc4c(cc3c21)OCO4`: 223 to 224 °C. Turning to `C#CCc1c(C)nc2c(OCc3ccccc3)cccn12`, the melting point stood at 112 °C. `COc1cccc(NC(=O)c2ccccc2[N+](=O)[O-])c1` gave a melting point of 156 to 158 °C. Take `COc1ccc(S(=O)(=O)N(Cc2cccnc2)c2c(C(=O)O)cnc3snc(C)c23)cc1`: the melting point was in the range of 234 to 236 °C.

The molecule `COc1c(-c2cc3c(s2)CCCC3O)ccc2c(=O)c(C(=O)O)cn(C3CC3)c12` (stereo not given) came in with a melting point of 237 to 239 °C. In the case of `CCOC(=O)C(Cc1ccccc1CCCBr)(NC(C)=O)C(=O)OCC` it was 73 to 74.5 °C. Regarding `O=C(Nc1nc2ccc(Sc3cnc4ncc(NCc5ccccc5)cn34)cc2s1)C1CC1`, the melting point is greater than 260 °C. In the case of `CCCC1=C(C(=O)OCC)C(c2ccccc2Cl)c2cn(C(=O)OC)nc2N1` (stereo not given) it was 141 to 143 °C; in that of `COc1ccc(-c2nc(Sc3ccccc3OC)[nH]c2-c2ccc(OC)cc2)cc1`, 161 °C; in that of `CC(=O)NC1CCC(=O)c2sccc21` (stereo not given), 160 to 164 °C. As to `Nc1cc(CCC(=O)N(c2ccccc2)c2ccccc2)ccc1O`, the melting point was in the range of 170 to 172 °C.

In turn, `O=[N+]([O-])c1ccc2c(c1)C(c1ccccc1)=NCc1nc(CO)cn1-2` came in with a melting point of 250 to 251 °C. Next, `CCOC(=O)c1sc(C)nc1OCCCc1cc(OC(C)C)nn1Cc1ccc(Cl)cc1Cl`: 92 to 93 °C; `CCc1ccccc1Sc1c(O)cc(-c2ccccc2)oc1=O`: 190 to 192 °C. As to `COC1C(OC(=O)c2ccc(N)cc2)C=C(C)C(=O)CC1(C)C` (stereo not given), the melting point is 159 to 161 °C.

Turning to `CCOCc1nc2c(N)nc(C)c(C)c2n1CCCCS(=O)(=O)N(C)C`, the melting point is 158 to 160 °C. The molecule `CCN1c2ncc(N)cc2C(=O)N(C)c2cccnc21` registered a melting point of 189 to 191 °C. As for `CC12CCC3C4CCC(=O)C=C4CC(CCCCCCCCCCCO[Si](C)(C)C(C)(C)C)C3C1CCC2=O` (stereo not given), the melting point turned out to be 65 °C. In the case of `C=CCN1C2C=C(c3cc4ccccc4s3)CC1CC2` (stereo not given), the melting point was 60.6 to 62.6 °C. As for `Fc1ccc(Nc2nc(N/N=C/c3ccc4ccccc4c3)nc(N3CCOCC3)n2)cc1`, the melting point was 225 to 226 °C. Consider `NCCSC[C@H]1O[C@@H](n2cnc3c(NCc4ccc([N+](=O)[O-])cc4)ncnc32)[C@H](O)[C@@H]1O`, for which the melting point was in the range of 115 to 117 °C.

Take `NC(=O)CCCCCNC(N)=O`: the melting point was 208 °C.

In turn, `Cn1c(C(F)(F)F)cc(=O)n(-c2ccc(Cl)c3c2OC(C)(C)C3=O)c1=O` gave a melting point of 177 to 178 °C. `CCCCCCc1ccc(CCCCC(NC(C)=O)(C(=O)OCC)C(=O)OCC)cc1` returned a melting point of 57 to 58 °C.

In turn, `CCOc1ccc(S(=O)(=O)N2CCN(C)CC2)cc1-c1nc2c(COC)nn(C)c2c(=O)[nH]1` gave a melting point of 198 to 199 °C.

The molecule `CC(C)[C@H](NC(=O)OCc1ccccc1)C(=O)NNS(=O)(=O)c1ccccc1` came in with a melting point of 253 to 255 °C. Next, `Cc1c(NC(=O)C(CSC(=O)C(C)(C)C)Cc2ccccc2)cccc1C(=O)O` (stereo not given): 117 to 120 °C; `CN1Cc2c(C(=O)OC(C)(C)C)ncn2-c2ccc(F)cc2C1=O`: 228 to 229 °C. Molecule `Cn1cnc2c(OC3SCC(O)C(O)C3O)cccc21` (stereo not given) came in with a melting point of 180 °C.

`CC(=O)Nc1cc(F)ccc1C(=O)NCCN1CCC2(CC1)C(=O)NCN2c1ccc(F)cc1` showed a melting point of 195 °C. In the case of `COc1cc(Nc2c(C#N)cnc3sc(I)cc23)c(Cl)cc1Cl` it was 231 to 233 °C; in that of `COCc1c(OC)cc(Cc2cnc(N)nc2N)cc1OC`, 221 to 223 °C; in that of `COc1nc(C)c(N2CCCn3c2nc2c(C#N)ccc(C(OC(F)F)C(F)(F)F)c23)c(C)n1` (stereo not given), 250 to 252 °C. `C1=C(c2c[nH]c3ccccc23)CCN(CCc2csc3ccccc23)C1` displayed a melting point of 195 to 198 °C. Molecule `COc1cccc(-c2cncc(OC3SCC(OC(C)=O)C(OC(C)=O)C3OC(C)=O)c2)c1` (stereo not given) came in with a melting point of 112 to 115 °C. `COC1CCCCC1(O)c1ccncc1` (stereo not given) yielded a melting point of 98 to 101 °C. Next, `CCOC(=O)c1cccc(-c2c(C)c(NC(=O)CC(C)(C)C)c(C)c3c2OCC3c2ccc(C(C)C)cc2)c1` (stereo not given): 175 to 177 °C. In the case of `N#Cc1c[nH]cc1-c1ccccc1Cl` it was 138 to 139 °C. In the case of `CC(=O)Oc1cc(OC(C)=O)c2ccc(=O)[nH]c2c1` it was 230 to 232 °C; in that of `COc1cccc(OC(=O)/C=C/c2ccc(C(C)(C)C)cc2)c1`, 83 °C; in that of `CCN1C(=O)C(C)(C)C(=O)N(C)c2cc(CN(CCn3ccc4oc(C)cc4c3=O)Cc3cccnc3COC)ccc21`, 127 to 129 °C. Molecule `O=C1NC(=O)C(Cc2ccc(N3CCC(NC[C@H](O)c4cccc(Cl)c4)CC3)cc2)S1` (stereo not given in full) had a melting point of 195 to 198 °C.

`O=C(NC1CCCCC1)OC1CCCCC1` registered a melting point of 77 to 78 °C. Next, `CCCCCCCCCCC[C@@H](O)CC(=O)O`: 70.6 to 71.4 °C. For `COCC1CN=C(c2ccc(OCCCCCCCc3cc(C)no3)cc2)O1` (stereo not given), the melting point fell in the range of 53 to 55 °C.
